Results as given in patent US20210122746A1, “FEBRIFUGINE DERIVATIVES” (BRISTOL-MYERS SQUIBB COMPANY, priority 2017, published 2021).
Counter-ions that a name gives are not always drawn.

What was measured:
[1] = system: Rat hepatocytes; experiment: GSH trapping assay; format: in vitro ADME; details: 30 μM, 24 hr incubation, LC-MS detection of GSH adducts
Experimental: Rat hepatocytes were isolated from male Sprague-Dawley rats (Vivo Biotech Ltd, HYD, India), weighing 230 to 280 g by the two step collagenase perfusion method (seglen, 1976; Berry M N and Friend D S.1969). Rat hepatocytes were cultured in Dulbecco's Modified Eagle's Medium (DMEM, Gibco®, USA) supplemented with 10^−6M dexamethasone (Gibco®), 5% fetal bovine serum (Gibco®) and cocktail-A mix (CM3000, Gibco®) containing HEPES buffer (PH 7.4), GlutaMAX™, human recombinant insulin, penicillin and streptomycin. Initial cell viability assessed by Trypanblue stain 0.4% (Sigma, UK) and viability more than 80% were considered for culturing. Hepatocytes were seeded in 96 well type-I collagen coated plates (Gibco®) at 4×10^4 cells/well in 100 μL of the culture medium and incubated at 37° C. in 5% CO2 and 95% relative humidity (RH) for 4 hr of cell attachment.
After 4hr incubation, rat hepatocytes were washed twice with pre-warmed (37° C.) DMEM incubation medium supplemented with 10^−7M dexamethasone and cell maintenance cocktail-B (CM4000, Gibco®) solution to remove unattached cells. Post washing hepatocytes were treated with test and reference compounds in incubation medium at single concentration (30 μM) in duplicate and incubate further for 24 hr at 37° C. with 5% CO2 and 95% RH. The final concentration of DMSO in medium was 0.5%.
Post 24 hr incubation, hepatocyte samples were quenched with equal volumes of acetonitrile containing 0.1% formic acid followed by vortex mix, sonicate and centrifuge at 12000 rpm at room temperature for 5 min. Supernatant samples were analyzed for GSH adducts on a C18 reverse-phase column (Xbridge™ Shield, C18, 4.6×150 mm, 3.5 μm) with solvent A (10 mM ammonium formate and 0.1% formic acid/water) and solvent B (0.1% formic acid/acetonitrile).
The column was eluted with 5% B for 5 min and then with a linear gradient to 20% B over 10 min and it was maintained upto 15 min, then it was increased linearly to 40% B upto 27 min and then increase to 90% B upto 29 min, and then equilibrate back the column to 5% B upto 33 min at a flow rate of 0.6 ml/min. The column effluent was directed into the ESI source of a LTQ Velos Orbitrap mass spectrometer (Thermo Fisher Scientific, San Jose, Calif.). The ESI conditions were as follows: sheath gas flow rate, 40 arbitrary units; auxiliary gas, 30 arbitrary units; spray voltage, 4.5 kV; capillary temperature, 230° C.; capillary voltage, 30 V; and tube lens offset, 25 V. Data were acquired in positive ion mode using Xcalibur software (Thermo Fisher Scientific) with one full scan followed by two data-dependent scans of the most intense and the second most intense ions. During the data interpretation the characteristic fragments of neutral loss of glycine (75.0320 Da), pyroglutamic acid (129.0426 Da) and loss of neutral moiety GSH (307.0838 Da) and/or a specific fragment of (GSH+H)^+ (m/z 308.0911) were monitored. Finally, the fragments ions with m/z e.g. 179.0485, 177.0328 and 162.0219 Da, which were derived from the glutathione moiety were used to report GSH positive results.

[2] = biological target: T1, human ProRS (prolyl tRNA synthetase moiety of glutamyl prolyl tRNA synthetase) (Homo sapiens, UniProt P07814); experiment: Assay for inhibitors of prolyl tRNA synthetase activity (ProRS assay, labeled proline incorporation); format: biochemical; details: ProRS 20 nM, compounds 10 μM to 0.5 nM, 10 min at 37° C.; read-out: EPR IC50
T1 construct: The prolyl tRNA synthetase moiety (ProRS) in the cDNA of glutamyl prolyl tRNA synthetase was subcloned; 6xHis (N, cleaved yes); made in house; host or cells: E. coli BL21 (DE3)
T1 sequence (P07814 1007-1512 limits assumed): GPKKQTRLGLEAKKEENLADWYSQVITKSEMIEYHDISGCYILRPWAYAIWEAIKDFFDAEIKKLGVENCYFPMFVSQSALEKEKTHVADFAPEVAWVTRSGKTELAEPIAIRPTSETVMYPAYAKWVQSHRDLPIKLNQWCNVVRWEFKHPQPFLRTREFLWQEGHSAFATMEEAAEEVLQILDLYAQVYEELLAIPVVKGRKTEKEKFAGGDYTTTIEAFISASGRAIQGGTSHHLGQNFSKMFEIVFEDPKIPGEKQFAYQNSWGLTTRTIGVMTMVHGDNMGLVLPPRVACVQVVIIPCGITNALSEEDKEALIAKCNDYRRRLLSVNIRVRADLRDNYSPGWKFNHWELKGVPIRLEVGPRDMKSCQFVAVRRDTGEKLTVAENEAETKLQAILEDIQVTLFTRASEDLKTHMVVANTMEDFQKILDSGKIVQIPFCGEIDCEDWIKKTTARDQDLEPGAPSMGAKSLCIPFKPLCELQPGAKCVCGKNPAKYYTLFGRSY
Excerpt: In order to establish the activities of the compounds highlighted above, we determined extent of inhibition of prolyl tRNA synthetase activity in dose response curves to obtain IC50 values.
The prolyl tRNA synthetase moiety (ProRS) in the cDNA of glutamyl prolyl tRNA synthetase was subcloned, tagged with a single biotin, purified and used in the assay. Briefly, human ProRS with a 6× N-terminal His tag in pET28N with TVMV BioP was transformed in E. coli BL21 (DE3) cells, selected, overexpressed and purified using a Ni Seph 6 FF XK 16/20 column in the first stage. Ni-NTA eluates were pooled and treated with TVMV protease, and biotinylated using d-Biotin, MgCl2, ATP and the BirA enzyme. This was rerun through a Ni column as before. The eluates were further enriched and purified using membrane ultrafiltration and a SuperDex 200 XK 16/60 column, and peak fractions were confirmed by SDS-PAGE prior to protein amount determination, aliquoting and storage at −80° C.
ProRS assay was performed in 96 well plates in a final reaction volume of 20 μl, using staggered additions of Tris-Cl (pH 7.5, 60 mM), dithiothreitol (2 mM), ATP (5 mM, pH 7.0), MgCl2 6 mM), ProRS (20 nM, with pre-determined active fraction range) and bovine tRNA (20 μg). Controls and compounds, at various concentrations (10 μM to 0.5 nM), were incubated on ice with enzyme mix for 15 min followed by addition of proline (non-labeled and labeled, 3.96 and 1.04 μM (1 μCi) respectively) to initiate the reaction. Reaction was carried out for 10 min at 37° C. and terminated by addition of TCA (10%, 100 μl). Reaction mix was collected on a Whatman GF/B filter using a vacuum filtration manifold. This filter was washed 3 times with 5% TCA followed by 2 washes with ethanol, air dried, and read using a liquid scintillation counter (TopCount NXT) using MicroScint O. IC50 values were calculated and analyzed using ToolSet (4-parameter plot) and depicted herein.

Structure (SMILES): Cc1cc(C(F)(F)F)nc2c(=O)n(C[C@@H](O)C[C@H]3NCCC[C@@H]3O)cnc12 [Example 31, 3-{(S)-2-hydroxy-3-[(2R,3S)-3-hydroxypiperidin-2-yl]propyl}-8-methyl-6-(trifluoromethyl)pyrido[3,2-d]pyrimidin-4(3H)-one bis(2,2,2-trifluoroacetic acid)]
- GSH adduct formation [1]: Negative
- IC50 [2]: 416 nM

Structure (SMILES): O=C(C[C@H]1NCCC[C@@H]1O)Cn1cnc2cccnc2c1=O [Example 2, 3-{3-[(2R,3S)-3-Hydroxypiperidin-2-yl]-2-oxopropyl}pyrido[3,2-d]pyrimidin-4(3H)-one dihydrochloride]
- GSH adduct formation [1]: Negative
- IC50 [2]: 15 nM

Structure (SMILES): Cc1cc(C)c2ncn(CC(=O)C[C@@H]3CCCCN3)c(=O)c2n1.Cl.Cl [Example 10, (S)-6,8-dimethyl-3-(2-oxo-3-(piperidin-2-yl)propyl)pyrido[3,2-d]pyrimidin-4(3H)-one dihydrochloride]
- GSH adduct formation [1]: Negative
- IC50 [2]: 773 nM

Structure (SMILES): O=c1c2nc(-c3cccnc3)ccc2ncn1C[C@@H](O)C[C@H]1NCCC[C@@H]1O [Example 29, 3-{(S)-2-hydroxy-3-[(2R,3S)-3-hydroxypiperidin-2-yl]propyl}-6-(pyridin-3-yl)pyrido[3,2-d]pyrimidin-4(3H)-one 2,2,2-trifluoroacetate]
- IC50 [2]: 103 nM

Structure (SMILES): Cc1cc(-c2cccc(F)c2)nc2c(=O)n(C[C@@H](O)C[C@H]3NCCC[C@@H]3O)cnc12 [Example 32, 6-{(3-fluorophenyl)-3-[(S)-2-hydroxy-3-(2R,3S)-3-hydroxypiperidin-2-yl-propyl)-8-methylpyrido[3,2-d]}pyrimidin-4(3H)-one dihydrochloride]
- IC50 [2]: 79 nM

Structure (SMILES): Cc1cc(-c2cccc(Cl)c2)nc2c(=O)n(C[C@@H](O)C[C@H]3NCCC[C@@H]3O)cnc12 [Example 33, 6-(3-chlorophenyl)-3-{(S)-2-hydroxy-3-[(2R,3S)-3-hydroxypiperidin-2-yl]propyl}-8-methylpyrido[3,2-d]pyrimidin-4(3H)-one dihydrochloride]
- IC50 [2]: 23 nM

Structure (SMILES): Cc1cc(Cl)cc2c(=O)n(CC(=O)CC3CCCCN3)cnc12 (stereo not shown) [Example 4, 6-Chloro-8-methyl-3-[2-oxo-3-(piperidin-2-yl)propyl]quinazolin-4(3H)-one hydrochloride]
- IC50 [2]: 807 nM

Structure (SMILES): Cc1cc(Cl)cn2c(=O)c(NC(=O)C[C@H]3NCCC[C@@H]3O)cnc12.Cl [Example 39, N-(7-Chloro-9-methyl-4-oxo-4H-pyrido [1,2-a]pyrimidin-3-yl)-2-[(2R, 3S)-3-hydroxypiperidin-2-yl]acetamide hydrochloride]
- GSH adduct formation [1]: Negative
- IC50 [2]: 301 nM

Structure (SMILES): O=c1c2nc(-c3cccc(C(F)(F)F)c3)ccc2ncn1C[C@@H](O)C[C@H]1NCCC[C@@H]1O [Example 23, 3-{(S)-2-Hydroxy-3-[(2R,3S)-3-hydroxypiperidin-2-yl]propyl}-6-[3-(trifluoromethyl)phenyl]pyrido[3,2-d]pyrimidin-4(3H)-one dihydrochloride]
- GSH adduct formation [1]: Negative
- IC50 [2]: 28 nM

Structure (SMILES): Cc1cc(C)c2ncn(C[C@@H](O)C[C@H]3NCCC[C@@H]3O)c(=O)c2n1 [Example 21, 3-{(S)-2-hydroxy-3-[(2R,3S)-3-hydroxypiperidin-2-yl]propyl}-6,8-dimethylpyrido[3,2-d]pyrimidin-4(3H)-one dihydrochloride]
- IC50 [2]: 491 nM

Structure (SMILES): Cc1cc(C(F)(F)F)cn2c(=O)c(NC(=O)C[C@H]3NCCC[C@@H]3O)cnc12 [Example 41, 2-((2R,3S)-3-hydroxypiperidin-2-yl)-N-(9-methyl-4-oxo-7-(trifluoromethyl)-4H-pyrido[1,2-a]pyrimidin-3-yl)acetamide 2,2,2-trifluoroacetic acid]
- IC50 [2]: > 8000 nM

Structure (SMILES): Cc1cc(-c2cccnc2)nc2c(=O)n(CC(=O)C[C@H]3NCCC[C@@H]3O)cnc12 [Example 17, 3-{3-[(2R,3S)-3-hydroxypiperidin-2-yl]-2-oxopropyl}-8-methyl-6-(pyridin-3-yl)pyrido[3,2-d]pyrimidin-4(3H)-one trihydrochloride]
- IC50 [2]: 12 nM

Structure (SMILES): Cc1cc(-c2cccc(F)c2)cn2c(=O)c(NC(=O)C[C@H]3NCCC[C@@H]3O)cnc12 [Example 40, N-(7-(3-fluorophenyl)-9-methyl-4-oxo-4H-pyrido[1,2-a]pyrimidin-3-yl)-2-((2R,3S)-3-hydroxypiperidin-2-yl)acetamide 2,2,2-trifluoroacetic acid]
- IC50 [2]: 2730 nM

Structure (SMILES): Cc1cc(-c2cccc(F)c2)nc2c(=O)n(CC(=O)C[C@H]3NCCC[C@@H]3O)cnc12 [Example 14, 6-(3-fluorophenyl)-3{3-[(2R,3S)-3-hydroxypiperidin-2-yl]-2-oxopropyl}-8-methylpyrido[3,2-d]pyrimidin-4(3H)-one dihydrochloride]
- IC50 [2]: 7 nM

Structure (SMILES): Cc1cc(C(C)C)cc2c(=O)n(C[C@@H](O)C[C@@H]3CCCCN3)cnc12 [Example 35, 3-{(S)-2-hydroxy-3-[(S)-piperidin-2-yl]-propyl}-6-isopropyl-8-methylquinazolin-4(3H)-one hydrochloride]
- IC50 [2]: 1390 nM

Structure (SMILES): Cc1cc(C)c2ncn(CC(=O)C[C@H]3NCCC[C@@H]3O)c(=O)c2n1 [Example 1, 3-{3-[(2R,3S)-3-Hydroxypiperidin-2-yl]-2-oxopropyl}-6,8-dimethylpyrido[3,2-d]pyrimidin-4(3H)-one dihydrochloride]
- GSH adduct formation [1]: Negative
- IC50 [2]: 28 nM
